Source: paper PMC10449621, “Engineering cellular communication between light-activated synthetic cells and bacteria” (Nature Chemical Biology, 2023)
Values joined by “and” are separate entries in the source; they are usually repeats but may differ in a detail not shown here. Equal entries are not always repeated.

Legend:
[1] = tested on: BjaRS107R (B0034|CTG) receiver cells; test: BjaR receiver cell AHSL dose-response (gfp reporter, plate reader); assay type: cell-based, E. coli XL10-Gold
Protocol: (§1) After four rounds of random mutagenesis, ON-selection and outgrowth, the OFF- and ON-states of 45 BjaR variants were screened by measuring their GFP fluorescence in the absence and presence of 1 nM IV-HSL. […] To understand the true impact of these mutations on receiver cell performance, the bjaRS107R (CTG) and bjaRWT (ACG) genes were cloned back into the reporter plasmid backbone without kanR.
(§2) The BjaR reporter plasmids were retransformed into E. coli XL10-Gold cells for each experiment. A single colony was used to inoculate 5 ml LB + Amp media and incubated at 37 °C, 225 r.p.m. overnight. Overnight cultures were diluted 1/250 or 1/500 in 5 ml M9 minimal media + Amp and incubated at 37 °C, 225 r.p.m. for 3 h and 45 min (until OD600 = ~0.075). Cultures were diluted down to OD600 = 0.05 with M9 minimal media + Amp, and 200 µl was added to wells of a 96-well plate containing 1 µl IV-HSL dissolved in DMSO or 1 µl BjaI CFPS reactions (IV-HSL concentrations obtained from serial dilution from 63.2 µM to 632 pM; final DMSO concentration = 0.5%). Cells were incubated at 37 °C, 800 r.p.m., in a thermomixer with a heated lid for 4 h. Fluorescence and OD600 were measured in a Tecan M1000 infinite plate reader (excitation, 488 nm; emission, 510 nm; bandwidth, 5 nm; gain, 101 and z position, 21,311 µm). The dose–response curves were fitted to the function indicated by Eq. (1), where a = maximal fluorescence output, b = basal fluorescence output, X = concentration of AHSL, GFP = fluorescence at the given condition, EC50 = AHSL at 50% maximal fluorescence output and h = hill coefficient. EC50 and h were derived using the nonlinear regression model based on Eq. (1), in MATLAB. A summary of the dose–response data is available in Supplementary Table 1.1 GFP=b+a−b/1+10^logEC50−X×h

[2] = tested on: BjaRWT (B0034|ACG) receiver cells; test: as above; assay type: cell-based, E. coli XL10-Gold
Protocol: as §1, §2

[3] = Escherichia coli, IV-HSL-activated gfp expression

In the case of `CC(C)CC(=O)N[C@H]1CCOC1=O` [IV-HSL, N-isovaleryl-L-homoserine lactone], the EC50 [1, 3] is reported as 0.44 ± 0.04 nM, the GFP ([1]; Log([ASHL]) -6.5) is reported as 37925 and 45810 and 36660 and the Mean normalised fluorescence ([1]; Log([ASHL]) -6.5) is reported as 184153. The Normalised fluorescence ([1]; Log([ASHL]) -6.5) was 205027 and 170089 and 177344, the GFP ([1]; Log([ASHL]) -7) was 36122 and 43880 and 35340 and the Mean normalised fluorescence ([1]; Log([ASHL]) -7) was 165547. For the same compound, the Normalised fluorescence ([1]; Log([ASHL]) -7) was 185321 and 153601 and 157719, the GFP ([1]; Log([ASHL]) -7.5) was 35735 and 43795 and 35365 and the Mean normalised fluorescence ([1]; Log([ASHL]) -7.5) was 163310. For the same compound, the Normalised fluorescence ([1]; Log([ASHL]) -7.5) was 180638 and 151602 and 157690, the GFP ([1]; Log([ASHL]) -8) was 43912 and 35147 and 35505 and the Mean normalised fluorescence ([1]; Log([ASHL]) -8) was 161376. The Normalised fluorescence ([1]; Log([ASHL]) -8) was 150185 and 151700 and 182243, the GFP ([1]; Log([ASHL]) -8.5) was 44967 and 35318 and 37269 and the Mean normalised fluorescence ([1]; Log([ASHL]) -8.5) was 147580. The Normalised fluorescence ([1]; Log([ASHL]) -8.5) was 140866 and 144147 and 157727, the GFP ([1]; Log([ASHL]) -9) was 41968 and 33264 and 37415 and the Mean normalised fluorescence ([1]; Log([ASHL]) -9) was 127915. For the same compound, the Normalised fluorescence ([1]; Log([ASHL]) -9) was 124650 and 118620 and 140474, the GFP ([1]; Log([ASHL]) -9.5) was 22707 and 17817 and 19857 and the Mean normalised fluorescence ([1]; Log([ASHL]) -9.5) was 69560.7. The Normalised fluorescence ([1]; Log([ASHL]) -9.5) was 65949.9 and 69200.5 and 73531.6, the GFP ([1]; Log([ASHL]) -10) was 5295 and 3943 and 4882 and the Mean normalised fluorescence ([1]; Log([ASHL]) -10) was 15714.4. For the same compound, the Normalised fluorescence ([1]; Log([ASHL]) -10) was 15242.3 and 14666.4 and 17234.6, the GFP ([1]; Log([ASHL]) -10.5) was 1534 and 1232 and 1622 and the Mean normalised fluorescence ([1]; Log([ASHL]) -10.5) was 4749.74. For the same compound, the Normalised fluorescence ([1]; Log([ASHL]) -10.5) was 4305.92 and 4298.44 and 5644.87, the GFP ([1]; Log([ASHL]) -11) was 1122 and 884 and 1057 and the Mean normalised fluorescence ([1]; Log([ASHL]) -11) was 3184.98. The Normalised fluorescence ([1]; Log([ASHL]) -11) was 3030.92 and 3019.01 and 3505.01, the GFP ([1]; Log([ASHL]) -11.5) was 784 and 731 and 617 and the Mean normalised fluorescence ([1]; Log([ASHL]) -11.5) was 2156.19. The Normalised fluorescence ([1]; Log([ASHL]) -11.5) was 2102.93 and 2315.04 and 2050.6, the “fold activation of gfp expression” value ([1]; with vs without IV-HSL) was ~ 88 fold and the EC50 [2, 3] was 22.3 ± 2.59 nM. The GFP ([2]; Log([ASHL]) -6.5) was 41705 and 34148 and 40466, the Mean normalised fluorescence ([2]; Log([ASHL]) -6.5) was 152634 and the GFP ([2]; Log([ASHL]) -7) was 36443 and 32999 and 38903. For the same compound, the Mean normalised fluorescence ([2]; Log([ASHL]) -7) was 132540, the GFP ([2]; Log([ASHL]) -7.5) was 26920 and 30479 and 35001 and the Mean normalised fluorescence ([2]; Log([ASHL]) -7.5) was 111442. The GFP ([2]; Log([ASHL]) -8) was 23596 and 24216 and 12337, the Mean normalised fluorescence ([2]; Log([ASHL]) -8) was 70550.8 and the Mean normalised fluorescence ([2]; Log([ASHL]) -8.5) was 28355.7. The Mean normalised fluorescence ([2]; Log([ASHL]) -9) was 6838.99, the Mean normalised fluorescence ([2]; Log([ASHL]) -9.5) was 1496.47 and the GFP ([2]; Log([ASHL]) -10) was 268 and 258 and 219. For the same compound, the Mean normalised fluorescence ([2]; Log([ASHL]) -10) was 638.735, the GFP ([2]; Log([ASHL]) -10.5) was 198 and 199 and 217 and the Mean normalised fluorescence ([2]; Log([ASHL]) -10.5) was 483.533. For the same compound, the GFP ([2]; Log([ASHL]) -11) was 195 and 198 and 217, the Mean normalised fluorescence ([2]; Log([ASHL]) -11) was 487.314 and the GFP ([2]; Log([ASHL]) -11.5) was 199 and 225 and 193. The Mean normalised fluorescence ([2]; Log([ASHL]) -11.5) was 497.83 and the “fold activation of gfp expression” value ([2]; with vs without IV-HSL) was ~ 309 fold.
